Assay results as given in PubChem BioAssay (NCI).
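Each compound was tested at five concentrations against cells in 96-well plates for 48 hours. GI50: concentration for 50% inhibition of growth. TGI denotes the concentration required for complete inhibition of growth.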

Tests used:
Test in all cases: inhibition of tumour cell growth, NCI panel, 48 h
786-0 renal = system: 786-0 renal
A498 renal = system: A498 renal
A549 NSCLC = system: A549 NSCLC
ACHN renal = system: ACHN renal
BT-549 breast = system: BT-549 breast
CAKI-1 renal = system: CAKI-1 renal
CCRF-CEM leukemia = system: CCRF-CEM leukemia
COLO 205 colon = system: COLO 205 colon
DU-145 prostate = system: DU-145 prostate
EKVX NSCLC = system: EKVX NSCLC
HCC-2998 colon = system: HCC-2998 colon
HCT-116 colon = system: HCT-116 colon
HCT-15 colon = system: HCT-15 colon
HL-60(TB) leukemia = system: HL-60(TB) leukemia
HOP-62 NSCLC = system: HOP-62 NSCLC
HT29 colon = system: HT29 colon
IGROV1 ovarian = system: IGROV1 ovarian
K-562 leukemia = system: K-562 leukemia
KM12 colon = system: KM12 colon
LOX IMVI melanoma = system: LOX IMVI melanoma
M14 melanoma = system: M14 melanoma
MALME-3M melanoma = system: MALME-3M melanoma
MCF7 breast = system: MCF7 breast
MDA-MB-231 breast = system: MDA-MB-231 breast
MDA-MB-435 = system: MDA-MB-435
MOLT-4 leukemia = system: MOLT-4 leukemia
NCI-H226 lung = system: NCI-H226 lung
NCI-H23 lung = system: NCI-H23 lung
NCI-H460 lung = system: NCI-H460 lung
NCI-H522 lung = system: NCI-H522 lung
NCI/ADR-RES ovarian = system: NCI/ADR-RES ovarian
OVCAR-3 ovarian = system: OVCAR-3 ovarian
OVCAR-4 ovarian = system: OVCAR-4 ovarian
OVCAR-5 ovarian = system: OVCAR-5 ovarian
OVCAR-8 ovarian = system: OVCAR-8 ovarian
PC-3 prostate = system: PC-3 prostate
RPMI-8226 leukemia = system: RPMI-8226 leukemia
RXF 393 renal = system: RXF 393 renal
SF-268 CNS = system: SF-268 CNS
SF-295 CNS = system: SF-295 CNS
SF-539 CNS = system: SF-539 CNS
SK-MEL-2 melanoma = system: SK-MEL-2 melanoma
SK-MEL-28 melanoma = system: SK-MEL-28 melanoma
SK-MEL-5 melanoma = system: SK-MEL-5 melanoma
SK-OV-3 ovarian = system: SK-OV-3 ovarian
SN12C renal = system: SN12C renal
SNB-19 CNS = system: SNB-19 CNS
SNB-75 CNS = system: SNB-75 CNS
SR leukemia = system: SR leukemia
SW-620 colon = system: SW-620 colon
T-47D breast = system: T-47D breast
U251 CNS = system: U251 CNS
UACC-257 melanoma = system: UACC-257 melanoma
UACC-62 melanoma = system: UACC-62 melanoma
UO-31 renal = system: UO-31 renal

COc1ncc(-c2ccc3nccc(C#CCN4CCN(S(C)(=O)=O)CC4)c3c2)cc1NS(=O)(=O)c1ccc(F)cc1F
GI50 (786-0 renal): 0.0522 µM
TGI (786-0 renal): 3.56 µM
GI50 (A498 renal): 0.048 µM
TGI (A498 renal): 0.309 µM
GI50 (A549 NSCLC): 0.083 µM
TGI (A549 NSCLC): 7.68 µM
GI50 (ACHN renal): 0.05 µM
TGI (ACHN renal): 3.39 µM
GI50 (BT-549 breast): 0.039 µM
TGI (BT-549 breast): 0.874 µM
GI50 (CAKI-1 renal): 0.173 µM
TGI (CAKI-1 renal): 13.4 µM
GI50 (CCRF-CEM leukemia): 0.101 µM
TGI (CCRF-CEM leukemia): 2.49 µM
GI50 (COLO 205 colon): 0.0418 µM
TGI (COLO 205 colon): 1.18 µM
GI50 (DU-145 prostate): 0.108 µM
TGI (DU-145 prostate): 12.6 µM
GI50 (EKVX NSCLC): 0.146 µM
TGI (EKVX NSCLC): 12.4 µM
GI50 (HCC-2998 colon): 0.0635 µM
TGI (HCC-2998 colon): 1.25 µM
GI50 (HCT-116 colon): 0.178 µM
TGI (HCT-116 colon): 1.87 µM
GI50 (HCT-15 colon): 0.0614 µM
TGI (HCT-15 colon): 1.62 µM
GI50 (HL-60(TB) leukemia): 0.0257 µM
TGI (HL-60(TB) leukemia): 1.81 µM
GI50 (HOP-62 NSCLC): < 0.0159 µM
TGI (HOP-62 NSCLC): 5.56 µM
GI50 (HT29 colon): 0.0237 µM
TGI (HT29 colon): 2.1 µM
GI50 (IGROV1 ovarian): < 0.01 µM
TGI (IGROV1 ovarian): 0.0333 µM
GI50 (K-562 leukemia): 0.665 µM
TGI (K-562 leukemia): > 41.3 µM
GI50 (KM12 colon): 0.293 µM
TGI (KM12 colon): 1.55 µM
GI50 (LOX IMVI melanoma): 0.0956 µM
TGI (LOX IMVI melanoma): 1.41 µM
GI50 (M14 melanoma): 0.0855 µM
TGI (M14 melanoma): 2.38 µM
GI50 (MALME-3M melanoma): 0.015 µM
TGI (MALME-3M melanoma): 0.214 µM
GI50 (MCF7 breast): < 0.01 µM
TGI (MCF7 breast): 1.79 µM
GI50 (MDA-MB-231 breast): 0.367 µM
TGI (MDA-MB-231 breast): 17.2 µM
GI50 (MDA-MB-435): 0.0915 µM
TGI (MDA-MB-435): 1.26 µM
GI50 (MOLT-4 leukemia): 0.0391 µM
TGI (MOLT-4 leukemia): 2.29 µM
GI50 (NCI-H226 lung): 0.298 µM
TGI (NCI-H226 lung): 2.27 µM
GI50 (NCI-H23 lung): 0.287 µM
TGI (NCI-H23 lung): 5.9 µM
GI50 (NCI-H460 lung): 0.049 µM
TGI (NCI-H460 lung): 4.71 µM
GI50 (NCI-H522 lung): 0.154 µM
TGI (NCI-H522 lung): 1.77 µM
GI50 (NCI/ADR-RES ovarian): 0.465 µM
TGI (NCI/ADR-RES ovarian): 12.4 µM
GI50 (OVCAR-3 ovarian): 0.0466 µM
TGI (OVCAR-3 ovarian): 0.982 µM
GI50 (OVCAR-4 ovarian): 0.264 µM
TGI (OVCAR-4 ovarian): 12 µM
GI50 (OVCAR-5 ovarian): 0.0207 µM
TGI (OVCAR-5 ovarian): 5.72 µM
GI50 (OVCAR-8 ovarian): 0.256 µM
TGI (OVCAR-8 ovarian): 11.7 µM
GI50 (PC-3 prostate): 0.058 µM
TGI (PC-3 prostate): 10.9 µM
GI50 (RPMI-8226 leukemia): 0.256 µM
TGI (RPMI-8226 leukemia): 1.83 µM
GI50 (RXF 393 renal): 0.0438 µM
TGI (RXF 393 renal): 0.354 µM
GI50 (SF-268 CNS): 0.0985 µM
TGI (SF-268 CNS): 3.93 µM
GI50 (SF-295 CNS): 0.0684 µM
TGI (SF-295 CNS): 1.17 µM
GI50 (SF-539 CNS): 0.0398 µM
TGI (SF-539 CNS): 0.272 µM
GI50 (SK-MEL-2 melanoma): 0.116 µM
TGI (SK-MEL-2 melanoma): 1.13 µM
GI50 (SK-MEL-28 melanoma): 0.0256 µM
TGI (SK-MEL-28 melanoma): 0.843 µM
GI50 (SK-MEL-5 melanoma): 0.192 µM
TGI (SK-MEL-5 melanoma): 0.723 µM
GI50 (SK-OV-3 ovarian): 0.0175 µM
TGI (SK-OV-3 ovarian): 0.168 µM
GI50 (SN12C renal): 0.124 µM
TGI (SN12C renal): 11.7 µM
GI50 (SNB-19 CNS): 0.299 µM
TGI (SNB-19 CNS): 2.11 µM
GI50 (SNB-75 CNS): 0.0106 µM
TGI (SNB-75 CNS): 0.152 µM
GI50 (SR leukemia): 0.222 µM
TGI (SR leukemia): 27 µM
GI50 (SW-620 colon): 0.205 µM
TGI (SW-620 colon): 2.23 µM
GI50 (T-47D breast): < 0.01 µM
TGI (T-47D breast): 0.0178 µM
GI50 (U251 CNS): 0.211 µM
TGI (U251 CNS): 1.75 µM
GI50 (UACC-257 melanoma): 0.0386 µM
TGI (UACC-257 melanoma): 0.517 µM
GI50 (UACC-62 melanoma): 0.0342 µM
TGI (UACC-62 melanoma): 0.307 µM
GI50 (UO-31 renal): 0.0274 µM
TGI (UO-31 renal): 3.73 µM
